Reference: ChEMBL document CHEMBL1201862, “PubChem BioAssay data set” (2004)
Activity calls are given as the source filed them.

What was measured:
[1] = target: T1, Probable nicotinate-nucleotide adenylyltransferase (Staphylococcus aureus (strain N315), UniProt P65502); assay type: functional, Staphylococcus aureus subsp. aureus N315;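 as to IC50 Mean: confirmatory dose-response retesting of NadD inhibitor hits first found in an ultra-high-throughput screen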
[2] = target: T1, Probable nicotinate-nucleotide adenylyltransferase; assay type: functional, Staphylococcus aureus subsp. aureus N315; conditions: read-out: IC50_Mean
[3] = target: Nuclear receptor subfamily 5 group A member 2 (Homo sapiens, UniProt O00482); assay type: functional, cell-based;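 also: HEK293T cells transfected with LRH-1 and a StAR promoter luciferase reporter; potency for inhibitors that lower LRH-1 driven reporter light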
Steroidogenic factor 1 = Steroidogenic factor 1 (Homo sapiens, UniProt Q13285); assay: Counterscreen for inverse agonists of the liver receptor homolog-1 (LRH-1; NR5A2): Luminescence-based cell-based high throughput dose response assay to identify inverse agonists of the Steroidogenic Factor 1 Nuclear Receptor (SF1; NR5A1).; assay type: functional
[4] = StAR promoter reporter inhibition counter-screen, dose response, counter-screen for LRH-1 inverse agonist project, cell-based, luminescence, luciferase reporter (AID 651969); assay type: functional
H9c2 = assay: cells; assay type: functional, cell-based; conditions: Rattus norvegicus, H9c2, Myocardium;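 also: confirmatory concentration-response retest of ultra-high-throughput screening hits for modulation of myocardial damage; cell death induced by hydrogen peroxide oxidative stress; compound pretreatment for 60 min then peroxide exposure for 2 h; potency is for protecting the cells against peroxide damage rather than for killing them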
[5] = target: ATP-dependent translocase ABCB1 (Homo sapiens, UniProt P08183); assay: ABCG2 efflux pump inhibitor potency, dose response, Ig-MXP3 cells, JC-1, flow cytometry, set 2 (AID 504566); assay type: functional; conditions: read-out: EC50_MICROM_;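 also: flow cytometry median green fluorescence of retained JC-1 dye; potency of efflux pump inhibition measured as rising substrate retention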
[6] = T. cruzi growth inhibition in host cells, dose response, cell-based, plate reader, dry powder, set 2 (AID 652275); assay type: functional
[7] = target: Long-chain-fatty-acid--AMP ligase FadD28 (Mycobacterium tuberculosis, UniProt P9WQ59); assay: Fluorescence polarization aasay to screen for inhibitors that compete for the binding of FadD28 to a bisubstrate Measured in Biochemical System Using Plate Reader - 2147-01_Inhibitor_Dose_CherryPick_Activity.; assay type: functional, Mycobacterium tuberculosis H37Rv
Vero = assay: Vero cell toxicity, dose response, cytotoxicity control, plate reader, cherry-pick samples (AID 687020); assay type: functional, cell-based; conditions: Chlorocebus sabaeus
Caspase-6 = target: T2, Caspase-6 (Homo sapiens, UniProt P55212); assay: human caspase-6 inhibitors, dose response, biochemical, VEID-R110 fluorescence, cherry-pick (AID 720632)
T2 sequence (P55212 whole entry): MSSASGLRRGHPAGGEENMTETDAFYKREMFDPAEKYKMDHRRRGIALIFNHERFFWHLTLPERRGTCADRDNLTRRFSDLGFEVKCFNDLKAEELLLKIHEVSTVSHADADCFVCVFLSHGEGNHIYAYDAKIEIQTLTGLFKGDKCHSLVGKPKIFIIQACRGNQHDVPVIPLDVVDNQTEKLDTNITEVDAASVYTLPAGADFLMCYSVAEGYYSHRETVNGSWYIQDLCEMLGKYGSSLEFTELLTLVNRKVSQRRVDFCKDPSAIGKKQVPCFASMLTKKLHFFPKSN

Aminopeptidase N = target: T3, Aminopeptidase N (Plasmodium falciparum FcB1/Columbia, UniProt O96935); assay: P. falciparum M1AAP inhibitors, biochemical, fluorogenic H-Leu-NHMec substrate, 1536-well (AID 1445); set-up: species or system Plasmodium falciparum 3D7, 3D7
T3 sequence (O96935 whole entry): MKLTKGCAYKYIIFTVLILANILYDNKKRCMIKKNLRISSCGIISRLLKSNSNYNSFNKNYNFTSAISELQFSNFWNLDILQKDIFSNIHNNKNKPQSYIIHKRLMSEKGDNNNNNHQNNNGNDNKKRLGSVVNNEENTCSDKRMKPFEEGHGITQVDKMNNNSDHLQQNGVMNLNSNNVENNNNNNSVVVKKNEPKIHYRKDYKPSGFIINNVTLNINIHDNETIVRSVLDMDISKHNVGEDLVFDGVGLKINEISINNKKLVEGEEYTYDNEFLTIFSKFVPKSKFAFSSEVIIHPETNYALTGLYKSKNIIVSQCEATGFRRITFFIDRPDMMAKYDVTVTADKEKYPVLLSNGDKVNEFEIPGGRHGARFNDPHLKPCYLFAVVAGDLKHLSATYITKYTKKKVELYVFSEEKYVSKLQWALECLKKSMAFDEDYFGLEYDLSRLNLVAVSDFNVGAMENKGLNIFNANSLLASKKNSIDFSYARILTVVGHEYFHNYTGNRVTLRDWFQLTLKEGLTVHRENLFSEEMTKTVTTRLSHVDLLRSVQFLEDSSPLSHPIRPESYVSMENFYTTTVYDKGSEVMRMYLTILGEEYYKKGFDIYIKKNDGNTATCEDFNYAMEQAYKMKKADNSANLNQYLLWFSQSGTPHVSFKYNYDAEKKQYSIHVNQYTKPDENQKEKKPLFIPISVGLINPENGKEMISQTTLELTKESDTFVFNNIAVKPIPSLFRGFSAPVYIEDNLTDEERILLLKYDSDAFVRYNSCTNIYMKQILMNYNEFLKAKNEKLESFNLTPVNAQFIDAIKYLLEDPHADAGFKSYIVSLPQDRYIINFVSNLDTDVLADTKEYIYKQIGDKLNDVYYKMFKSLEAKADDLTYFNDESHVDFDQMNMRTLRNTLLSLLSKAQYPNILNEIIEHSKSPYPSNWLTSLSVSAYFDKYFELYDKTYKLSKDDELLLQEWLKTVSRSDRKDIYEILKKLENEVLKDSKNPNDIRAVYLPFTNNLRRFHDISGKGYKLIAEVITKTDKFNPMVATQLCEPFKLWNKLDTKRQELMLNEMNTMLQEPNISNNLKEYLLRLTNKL

[8] = AlphaScreen signal interference compounds, dose response, artefact control for ARNT-TACC3 interaction inhibitor project, biochemical, luminescence, cherry-pick (AID 651705); assay type: functional;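 also: AlphaScreen bead proximity signal that flags compounds interfering with the detection technology; potency reflects signal decrease which marks the compound as an assay artifact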
HEK293 = assay: cells; assay type: functional, cell-based; conditions: Homo sapiens
[9] = target: T4, Nuclear receptor subfamily 0 group B member 1 (Homo sapiens, UniProt P51843); assay: Luminescence-based cell-based high throughput dose response assay for inhibitors of the orphan nuclear receptor subfamily 0, group B, member 1 (DAX1; NR0B1). [Related pubchem assays (depositor defined):AID504766, AID504790]; assay type: functional
T4 sequence (P51843 whole entry): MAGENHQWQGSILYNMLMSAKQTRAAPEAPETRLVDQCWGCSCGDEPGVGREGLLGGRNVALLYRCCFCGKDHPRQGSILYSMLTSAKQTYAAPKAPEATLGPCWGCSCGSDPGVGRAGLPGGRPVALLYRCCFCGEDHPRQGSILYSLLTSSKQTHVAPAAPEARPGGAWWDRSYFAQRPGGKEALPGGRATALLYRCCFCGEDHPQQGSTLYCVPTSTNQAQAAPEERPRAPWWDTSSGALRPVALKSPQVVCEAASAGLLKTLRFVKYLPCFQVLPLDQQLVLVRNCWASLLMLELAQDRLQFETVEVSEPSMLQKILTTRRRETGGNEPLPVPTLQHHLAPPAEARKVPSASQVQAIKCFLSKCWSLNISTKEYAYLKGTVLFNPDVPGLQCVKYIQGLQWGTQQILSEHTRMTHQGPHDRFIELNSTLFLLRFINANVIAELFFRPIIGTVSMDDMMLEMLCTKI

[10] = HepG2 cell cytotoxicity, dose response, cytotoxicity control, ATP luminescence, cherry-pick, activator set 2 (AID 1053143); assay type: functional, cell-based
[11] = A Cell-Based Confirmatory Screen for Compounds that Inhibit VEEV, TC-83 (8).; assay type: functional
[12] = target: T5, Low molecular weight phosphotyrosine protein phosphatase (Homo sapiens, UniProt P24666); assay type: functional; conditions: read-out: IC50_Mean
[13] = target: T5, Low molecular weight phosphotyrosine protein phosphatase; assay type: functional; conditions: read-out: IC50_Mean; remark: listed apart in the source
Beta-lactamase [14] = target: Beta-lactamase (Salmonella choleraesuis (strain SC-B67), UniProt Q5J463); assay: Epi-absorbance-based counterscreen for selective VIM-2 inhibitors: dose response biochemical high throughput screening assay to identify inhibitors of TEM-1 serine-beta-lactamase.
Beta-lactamase [15] = target: T6, Beta-lactamase (Pseudomonas aeruginosa, UniProt Q79MP6); assay: IMP-1 metallo-beta-lactamase inhibitors, dose response, selectivity assay for VIM-2 inhibitor project, biochemical, epi-absorbance (AID 1920)
Beta-lactamase [16] = target: T6, Beta-lactamase; assay: […] counterscreen for selective VIM-2 inhibitors: dose response biochemical high throughput screening assay to identify inhibitors of IMP-1 metallo-beta-lactamase.
[17] = test system: Streptococcus sp. 'group A'; assay: growth inhibition of control SK(-) GAS strain, dose response, counter-screen for streptokinase expression inhibitor project, luminescence, kanamycin, BacTiterGlo, confirmation (AID 1900); assay type: functional, organism-based
Streptokinase A = target: T7, Streptokinase A (Streptococcus pyogenes serotype M1, UniProt P10520); assay: S. pyogenes streptokinase expression inhibitors, potency, dose response, plasminogen activation absorbance, OD405 (AID 1914); assay type: functional, Streptococcus pyogenes M1 GAS;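 also: secreted streptokinase activity via plasminogen activation per viability signal from cell pellet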
T7 sequence (P10520 whole entry): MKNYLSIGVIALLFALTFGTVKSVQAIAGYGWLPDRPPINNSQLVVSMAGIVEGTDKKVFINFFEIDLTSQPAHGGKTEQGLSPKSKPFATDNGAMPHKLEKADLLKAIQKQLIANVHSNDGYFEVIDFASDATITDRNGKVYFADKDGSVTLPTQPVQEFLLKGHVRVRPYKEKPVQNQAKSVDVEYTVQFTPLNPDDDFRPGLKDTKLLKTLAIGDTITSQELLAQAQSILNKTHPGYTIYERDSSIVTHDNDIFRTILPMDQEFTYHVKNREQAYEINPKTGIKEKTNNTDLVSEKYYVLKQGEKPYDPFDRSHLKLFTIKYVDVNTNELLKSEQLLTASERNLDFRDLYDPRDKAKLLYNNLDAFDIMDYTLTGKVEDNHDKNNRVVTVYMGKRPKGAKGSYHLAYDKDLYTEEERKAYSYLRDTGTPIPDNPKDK

Streptococcus = assay: Group A Streptococcus viability loss, dose response, counter-screen for streptokinase expression inhibitor project, luminescence, BacTiterGlo (AID 1915); assay type: functional, organism-based;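 also: potency for reduction of bacterial viability or growth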
Nonstructural protein 1 = Nonstructural protein 1 (Influenza A virus, UniProt Q194T2); assay type: functional, Influenza A virus (A/California/07/2009(H1N1))
[18] = target: Matrix metalloproteinase-14 (Homo sapiens, UniProt P50281); assay: Dose Response confirmation of uHTS hits for a small molecule inhibitors of MT1-MMP activation in a fluorescence assay set 1.; assay type: functional
[19] = HEp-2 cell cytotoxicity, dose response, cytotoxicity control for RSV inhibitor project, HTS (AID 2410); assay type: functional; conditions: human respiratory syncytial virus
Fatty acid synthase [20] = target: T8, Fatty acid synthase (Homo sapiens, UniProt P49327); assay: FAS thioesterase domain inhibitors, dose response, biochemical, endpoint fluorescence intensity, uHTS hits (AID 624327); assay type: functional;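 also: fluorescence from hydrolysis of an O-methyl fluorescein acyl ester substrate by the enzyme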
Fatty acid synthase [21] = target: T8, Fatty acid synthase; assay: FAS thioesterase domain inhibitors, dose response, biochemical, kinetic fluorescence intensity (AID 624326); assay type: functional;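 also: rate of fluorescence rise from hydrolysis of a fluorogenic O-methyl fluorescein ester substrate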
cells = assay type: functional, cell-based
[22] = target: T4, Nuclear receptor subfamily 0 group B member 1; assay type: functional, cell-based
Mu-type opioid receptor = Mu-type opioid receptor (Homo sapiens, UniProt P35372); assay type: functional, cell-based;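 also: U2OS cells with beta-arrestin recruitment to OPRM1 by beta-gal complementation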
[23] = target: 5-hydroxytryptamine receptor 2A (Mus musculus, UniProt P35363); assay type: functional, cell-based;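 also: CHO-K1 cells with tagged receptor and beta-arrestin; agonist potency measured as compound-induced activation of the receptor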
[24] = target: T9, Protein disulfide-isomerase (Homo sapiens, UniProt P07237); assay: PDI inhibitors, insulin aggregation turbidity, dose response, biochemical, absorbance, cherry-picked samples (AID 602350); assay type: functional
[25] = target: T9, Protein disulfide-isomerase; assay: PDI inhibitors, insulin turbidity readout, dose response, biochemical, absorbance, cherry-picked samples, set 2 (AID 624274); assay type: functional

T6 sequence (Q79MP6 whole entry): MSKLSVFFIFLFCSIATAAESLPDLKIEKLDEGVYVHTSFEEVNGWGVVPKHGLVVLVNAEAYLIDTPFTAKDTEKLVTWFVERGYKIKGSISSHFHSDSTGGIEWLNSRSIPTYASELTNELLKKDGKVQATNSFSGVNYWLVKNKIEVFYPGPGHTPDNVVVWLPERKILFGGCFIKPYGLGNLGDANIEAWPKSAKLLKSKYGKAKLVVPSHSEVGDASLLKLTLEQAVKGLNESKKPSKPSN
T1 sequence (P65502 whole entry): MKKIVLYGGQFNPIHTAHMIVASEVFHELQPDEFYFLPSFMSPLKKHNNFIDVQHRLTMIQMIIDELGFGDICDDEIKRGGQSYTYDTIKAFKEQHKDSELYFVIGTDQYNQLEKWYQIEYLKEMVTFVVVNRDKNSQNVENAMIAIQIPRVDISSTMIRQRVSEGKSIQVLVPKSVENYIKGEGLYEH
T5 sequence (P24666 whole entry): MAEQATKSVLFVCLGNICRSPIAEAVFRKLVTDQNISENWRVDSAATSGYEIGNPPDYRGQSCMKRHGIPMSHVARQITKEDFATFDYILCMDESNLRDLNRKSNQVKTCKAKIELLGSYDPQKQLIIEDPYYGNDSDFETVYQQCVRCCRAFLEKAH
T9 sequence (P07237 whole entry): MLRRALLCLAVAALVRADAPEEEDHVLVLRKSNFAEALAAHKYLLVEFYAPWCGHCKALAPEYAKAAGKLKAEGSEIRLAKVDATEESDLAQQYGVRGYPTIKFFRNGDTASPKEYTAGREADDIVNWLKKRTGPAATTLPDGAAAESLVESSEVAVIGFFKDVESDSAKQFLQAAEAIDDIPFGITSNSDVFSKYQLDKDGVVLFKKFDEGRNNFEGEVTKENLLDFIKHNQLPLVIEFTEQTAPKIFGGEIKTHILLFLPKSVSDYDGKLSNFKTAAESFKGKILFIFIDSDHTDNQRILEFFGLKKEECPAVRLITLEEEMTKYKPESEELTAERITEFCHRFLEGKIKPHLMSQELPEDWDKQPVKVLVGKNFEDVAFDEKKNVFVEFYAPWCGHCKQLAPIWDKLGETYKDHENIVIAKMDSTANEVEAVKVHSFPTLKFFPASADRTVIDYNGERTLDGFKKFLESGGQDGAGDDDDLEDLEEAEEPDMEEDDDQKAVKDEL
T8 sequence (P49327 whole entry, the tested form may be a part): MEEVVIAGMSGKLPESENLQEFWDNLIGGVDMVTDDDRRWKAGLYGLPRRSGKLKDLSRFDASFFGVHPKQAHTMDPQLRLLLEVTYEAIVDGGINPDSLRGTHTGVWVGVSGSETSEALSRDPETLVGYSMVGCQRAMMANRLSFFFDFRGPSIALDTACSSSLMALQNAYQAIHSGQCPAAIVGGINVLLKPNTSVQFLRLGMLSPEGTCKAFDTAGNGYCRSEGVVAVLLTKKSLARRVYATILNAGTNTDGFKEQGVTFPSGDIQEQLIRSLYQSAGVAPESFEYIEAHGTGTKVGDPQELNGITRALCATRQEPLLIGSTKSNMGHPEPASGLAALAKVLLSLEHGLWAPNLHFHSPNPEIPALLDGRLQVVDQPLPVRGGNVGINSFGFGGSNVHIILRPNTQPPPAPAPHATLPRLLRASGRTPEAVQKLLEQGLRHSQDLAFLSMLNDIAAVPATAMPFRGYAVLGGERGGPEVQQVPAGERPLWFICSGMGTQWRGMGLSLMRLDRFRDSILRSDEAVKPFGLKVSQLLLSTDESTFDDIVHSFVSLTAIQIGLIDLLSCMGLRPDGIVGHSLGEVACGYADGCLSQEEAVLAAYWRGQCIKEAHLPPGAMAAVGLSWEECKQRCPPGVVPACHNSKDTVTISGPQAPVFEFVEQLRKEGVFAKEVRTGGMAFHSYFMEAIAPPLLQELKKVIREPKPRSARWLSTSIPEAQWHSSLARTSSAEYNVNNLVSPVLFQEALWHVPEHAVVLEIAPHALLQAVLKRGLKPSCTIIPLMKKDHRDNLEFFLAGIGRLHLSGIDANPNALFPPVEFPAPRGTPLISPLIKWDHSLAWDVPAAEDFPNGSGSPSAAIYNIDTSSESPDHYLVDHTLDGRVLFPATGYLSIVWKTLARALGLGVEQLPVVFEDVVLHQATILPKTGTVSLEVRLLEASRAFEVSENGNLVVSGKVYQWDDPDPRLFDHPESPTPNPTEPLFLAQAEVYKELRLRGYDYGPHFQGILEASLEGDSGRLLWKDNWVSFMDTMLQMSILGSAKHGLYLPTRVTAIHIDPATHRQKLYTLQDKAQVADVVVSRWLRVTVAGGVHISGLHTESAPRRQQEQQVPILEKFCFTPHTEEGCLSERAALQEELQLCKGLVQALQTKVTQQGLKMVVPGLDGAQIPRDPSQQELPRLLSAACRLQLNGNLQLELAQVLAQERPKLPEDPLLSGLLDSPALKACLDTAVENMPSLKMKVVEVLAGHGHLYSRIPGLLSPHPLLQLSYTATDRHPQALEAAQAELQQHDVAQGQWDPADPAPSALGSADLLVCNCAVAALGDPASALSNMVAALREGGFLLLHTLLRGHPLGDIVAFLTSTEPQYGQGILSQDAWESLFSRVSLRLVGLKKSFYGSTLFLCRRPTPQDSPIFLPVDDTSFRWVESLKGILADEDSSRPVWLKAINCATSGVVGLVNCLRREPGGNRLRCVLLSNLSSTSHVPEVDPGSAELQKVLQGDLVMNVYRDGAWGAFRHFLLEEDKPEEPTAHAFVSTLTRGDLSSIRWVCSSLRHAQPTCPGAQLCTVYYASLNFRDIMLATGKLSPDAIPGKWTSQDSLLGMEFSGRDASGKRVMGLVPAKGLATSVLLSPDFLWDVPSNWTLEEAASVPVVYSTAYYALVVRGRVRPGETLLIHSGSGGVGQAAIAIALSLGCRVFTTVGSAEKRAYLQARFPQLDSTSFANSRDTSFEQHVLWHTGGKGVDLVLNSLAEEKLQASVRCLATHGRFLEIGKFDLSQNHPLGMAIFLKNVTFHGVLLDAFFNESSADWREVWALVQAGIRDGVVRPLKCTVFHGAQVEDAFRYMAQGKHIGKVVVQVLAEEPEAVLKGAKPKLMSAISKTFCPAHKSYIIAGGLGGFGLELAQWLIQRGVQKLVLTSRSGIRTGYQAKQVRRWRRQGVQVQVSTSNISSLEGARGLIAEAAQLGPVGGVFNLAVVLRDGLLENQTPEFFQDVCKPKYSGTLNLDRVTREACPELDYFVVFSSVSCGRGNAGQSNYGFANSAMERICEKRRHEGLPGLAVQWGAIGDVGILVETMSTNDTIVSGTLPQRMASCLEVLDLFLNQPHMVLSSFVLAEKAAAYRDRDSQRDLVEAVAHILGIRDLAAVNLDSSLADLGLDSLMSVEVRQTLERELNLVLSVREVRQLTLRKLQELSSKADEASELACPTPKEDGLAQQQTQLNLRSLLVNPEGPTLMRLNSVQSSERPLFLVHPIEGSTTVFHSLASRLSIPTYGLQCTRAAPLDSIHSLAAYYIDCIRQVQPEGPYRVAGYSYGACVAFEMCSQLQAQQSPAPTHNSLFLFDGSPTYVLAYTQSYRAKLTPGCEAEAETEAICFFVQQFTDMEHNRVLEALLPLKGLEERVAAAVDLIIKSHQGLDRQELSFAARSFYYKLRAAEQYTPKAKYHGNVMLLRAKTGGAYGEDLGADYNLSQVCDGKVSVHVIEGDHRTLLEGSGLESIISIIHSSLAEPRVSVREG
Sequence of Nuclear receptor subfamily 5 group A member 2 (O00482 whole entry): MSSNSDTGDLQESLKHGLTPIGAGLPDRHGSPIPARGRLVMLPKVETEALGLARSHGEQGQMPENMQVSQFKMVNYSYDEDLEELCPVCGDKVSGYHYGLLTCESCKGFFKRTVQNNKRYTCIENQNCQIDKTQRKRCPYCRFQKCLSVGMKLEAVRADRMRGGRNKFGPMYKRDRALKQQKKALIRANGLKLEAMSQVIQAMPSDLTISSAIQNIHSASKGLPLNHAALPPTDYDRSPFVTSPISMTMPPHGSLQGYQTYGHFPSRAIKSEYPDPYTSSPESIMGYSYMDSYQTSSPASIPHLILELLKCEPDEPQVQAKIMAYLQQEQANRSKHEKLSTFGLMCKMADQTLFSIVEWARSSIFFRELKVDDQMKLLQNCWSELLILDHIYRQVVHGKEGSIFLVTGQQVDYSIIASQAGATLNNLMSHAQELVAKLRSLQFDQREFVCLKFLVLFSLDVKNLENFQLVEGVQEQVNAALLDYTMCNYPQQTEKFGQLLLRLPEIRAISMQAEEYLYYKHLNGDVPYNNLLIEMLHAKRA
Sequence of Long-chain-fatty-acid--AMP ligase FadD28 (P9WQ59 whole entry): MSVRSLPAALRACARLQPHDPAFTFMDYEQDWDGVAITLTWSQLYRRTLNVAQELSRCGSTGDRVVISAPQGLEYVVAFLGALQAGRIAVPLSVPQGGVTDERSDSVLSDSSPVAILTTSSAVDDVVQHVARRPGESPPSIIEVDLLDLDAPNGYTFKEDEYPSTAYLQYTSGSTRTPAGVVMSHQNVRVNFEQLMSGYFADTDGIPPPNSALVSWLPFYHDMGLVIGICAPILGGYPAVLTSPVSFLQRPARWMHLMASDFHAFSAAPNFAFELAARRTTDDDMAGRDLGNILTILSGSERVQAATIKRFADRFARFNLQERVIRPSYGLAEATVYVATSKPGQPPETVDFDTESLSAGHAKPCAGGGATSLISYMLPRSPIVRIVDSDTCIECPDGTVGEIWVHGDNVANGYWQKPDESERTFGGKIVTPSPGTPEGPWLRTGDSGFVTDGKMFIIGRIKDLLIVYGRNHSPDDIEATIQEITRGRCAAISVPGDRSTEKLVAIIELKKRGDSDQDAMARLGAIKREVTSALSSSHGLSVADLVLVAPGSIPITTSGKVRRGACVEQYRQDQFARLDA
Sequence of Nonstructural protein 1 (Q194T2 whole entry): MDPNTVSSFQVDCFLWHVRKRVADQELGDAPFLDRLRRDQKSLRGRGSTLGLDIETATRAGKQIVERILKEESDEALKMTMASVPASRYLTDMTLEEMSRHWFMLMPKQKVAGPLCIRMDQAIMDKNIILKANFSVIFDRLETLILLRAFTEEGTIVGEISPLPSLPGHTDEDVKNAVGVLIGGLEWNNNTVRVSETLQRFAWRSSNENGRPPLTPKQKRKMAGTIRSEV

CCOC(=O)C1=C(C)c2ccccc2N(C(=O)OC)C1(C)C(=O)OCC (stereo unspecified)
IC50 [1]: 15.6 µM (active)
IC50 [2]: 34.6 µM (active)

COc1cccc(-c2cnc3c(NC(C)=O)cc(-c4ccc(S(C)(=O)=O)cc4)cn23)c1
IC50 [3]: 9.25 µM (active)
IC50 (Steroidogenic factor 1): 4.62 µM (active)
IC50 [4]: 23.5 µM (inactive)

COc1ccc(-c2cc3nc(C)cc(N4CCN(C(=O)c5ccoc5)CC4)n3n2)cc1
IC50 (H9c2): 27.3 µM (active)
EC50 [5]: 6.12 µM (active)

CC(C)N1C[C@@H](CN(C)Cc2ccc(Cl)cc2)Oc2c(NC(=O)c3ccnnc3)cccc2C1=O
AC50 [6]: 0.198 µM (active)

Cc1ccc(NC(S)=NNc2ccc(C(=O)O)cc2[N+](=O)[O-])cc1C
AC50 [7]: > 100 µM (inactive)

Cc1c(C(=O)N2CCCC2)oc2ccc(Br)cc12
AC50 (Vero): 35.1 µM (active)
AC50 (Caspase-6): 23.5 µM (active)

O=C(N/N=C\c1cccc([N+](=O)[O-])c1O)C1COc2ccccc2O1 (stereo unspecified)
IC50 (Aminopeptidase N): 31.4 µM (active)
AC50 [8]: 90.6 µM (active)

Cc1ccc(NC(=O)c2ccc(Cl)cc2Cl)cc1O
IC50 (HEK293): > 67.6 µM (inactive)
IC50 [9]: > 67.6 µM (inactive)
AC50 [10]: 26 µM (active)

CCN1CCN(Cc2nc3ncc([N+](=O)[O-])cc3c(=O)n2-c2ccccc2)CC1
IC50 [11]: 0.832 µM (active)

CN(C)c1cc(-c2ccc(Cl)c(Cl)c2)oc(=O)c1Cl
IC50 [12]: 35.4 µM (inactive)
IC50 [13]: 8.63 µM (active)

Sc1nnc(-c2ccccc2)n1Cc1ccccc1
IC50 (Beta-lactamase [14]): > 59.6 µM (inactive)
IC50 (Beta-lactamase [15]): > 59.6 µM (inactive)
IC50 (Beta-lactamase [16]): > 59.6 µM (inactive)

Nc1nc(-c2ccccc2)c(N=Nc2cccc3ccccc23)s1
EC50 [17]: 4.14 µM (active)
EC50 (Streptokinase A): > 150 µM (not active)
EC50 (Streptococcus): > 150 µM (not active)
IC50 (Nonstructural protein 1): 9.98 µM (active)
IC50 [18]: 31.3 µM (inactive)

O=S(=O)(Nc1cccc(-c2ccc(N3CCCCCC3)nn2)c1)c1ccccc1F
CC50 [19]: > 50 µM (active)
IC50 (Fatty acid synthase [20]): 7.03 µM (active)
IC50 (Fatty acid synthase [21]): 6.9 µM (active)
IC50 (cells): > 67.6 µM (inactive)
IC50 [22]: > 67.6 µM (inactive)

CCOc1cc(CN2CCN(C(=O)c3ccco3)CC2)ccc1OC
EC50 (Mu-type opioid receptor): 92.5 µM (inactive)
EC50 [23]: 5.88 µM (active)

CC(C)N(C)C(=O)CCc1nnc(CCc2c[nH]c3ccccc23)o1
AC50 [24]: < 0.009 µM (active)
AC50 [25]: 0.009 µM (active)
